What was measured:
Test in all cases: MIC, CLSI broth microdilution
Format in all cases: cell-based
[1] = system: S. aureus ASAU001 (Fluoroquinolone-susceptible, ATCC29213); details: Table 2
Summary of the method: (§1)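 Broth microdilution per CLSI M7-A7, with serial two-fold compound dilutions in Mueller Hinton Broth mixed 1:1 with inoculum. Colonies from a previous-day agar plate were suspended in saline to a final 5×10^5 CFU/mL. Plates were incubated 20 hours at 35° C. in ambient air.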

[2] = system: P. aeruginosa APAE001 (Fluoroquinolone-susceptible, ATCC27853); details: Table 2
Summary of the method: as §1

[3] = system: A. baumannii AABA1065 (Fluoroquinolone-susceptible); details: Table 2
Summary of the method: as §1

[4] = system: S. aureus ASAU1031 (Fluoroquinolone-resistant); details: Table 2
Summary of the method: as §1

[5] = system: E. coli AECO001 (Fluoroquinolone susceptible, ATCC25922); details: Table 2, 35° C., 20 hours
Summary of the method: as §1

[6] = system: S. pneumoniae ASPN001 (Fluoroquinolone-susceptible, ATCC49619); details: Table 2
Summary of the method: as §1

[7] = system: S. pneumoniae ASPN1027 (Fluoroquinolone-resistant); details: Table 2
Summary of the method: as §1

[8] = system: A. baumannii AABA1009 (Fluoroquinolone-resistant); details: Table 2
Summary of the method: as §1

[9] = system: E. coli AECO066 (Fluoroquinolone-resistant); details: Table 2
Summary of the method: as §1

[10] = system: P. aeruginosa APAE054 (Fluoroquinolone-resistant); details: Table 2
Summary of the method: as §1

Row | MIC APAE 001 [2] | MIC ASAU 1031 [4] | MIC AECO 001 [5] | MIC ASPN 001 [6] | MIC ASPN 1027 [7] | MIC AABA 1009 [8] | MIC AECO 066 [9] | MIC APAE 054 [10] | Compound | MIC ASAU 001 [1] | MIC AABA 1065 [3]
1 | C (MIC's of greater than 8.0 μg/mL = C) | C (MIC's of greater than 8.0 μg/mL = C) | C (MIC's of greater than 8.0 μg/mL = C) | C (MIC's of greater than 8.0 μg/mL = C) | C (MIC's of greater than 8.0 μg/mL = C) | C (MIC's of greater than 8.0 μg/mL = C) | C (MIC's of greater than 8.0 μg/mL = C) | C (MIC's of greater than 8.0 μg/mL = C) | O=C(O)c1cn(C2CC2)c2c3c(c(F)cc2c1=O)N1C(=O)CC[C@H]1CC=C3 [23/12, (7aS)-4-Cyclopropyl-12-fluoro-1,10-dioxo-4,7,7a,8,9,10-hexahydro-1H-pyrrolo[1′,2′:1,7]azepino[2,3-h]quino-line-2-carboxylic acid] | B (MIC's of greater than 1.0 μg/mL to 8.0 μg/mL = B) | C (MIC's of greater than 8.0 μg/mL = C)
2 | C (MIC's of greater than 8.0 μg/mL = C) | C (MIC's of greater than 8.0 μg/mL = C) | C (MIC's of greater than 8.0 μg/mL = C) | C (MIC's of greater than 8.0 μg/mL = C) | C (MIC's of greater than 8.0 μg/mL = C) | C (MIC's of greater than 8.0 μg/mL = C) | C (MIC's of greater than 8.0 μg/mL = C) | C (MIC's of greater than 8.0 μg/mL = C) | O=C(O)c1cn(C2CC2)c2c3c(c(F)cc2c1=O)N1C(=O)CC[C@H]1CCC3 [23/14, (7aR)-4-Cyclopropyl-12-fluoro-1,10-dioxo-4,5,6,7,7a,8,9,10-octahydro-1H-pyrrolo[1′,2′:1,7]azepino[2,3-h]quinoline-2-carboxylic acid] | C (MIC's of greater than 8.0 μg/mL = C) | C (MIC's of greater than 8.0 μg/mL = C)

Row | Compound | MIC APAE 001 [2] | MIC ASAU 1031 [4] | MIC AECO 001 [5] | MIC ASPN 001 [6] | MIC ASPN 1027 [7] | MIC AABA 1009 [8] | MIC AECO 066 [9] | MIC APAE 054 [10] | MIC ASAU 001 [1] | MIC AABA 1065 [3]
3 | N[C@H]1C[C@H]2CC=Cc3c(ccc4c(=O)c(C(=O)O)cn(C5CC5)c34)N2C1 [25/14, (7aR,9S)-9-amino-4-cyclopropyl-1-oxo-4,7,7a,8,9,10-hexahydro-1H-pyrrolo[1′,2′:1,7]azepino[2,3-h]quinoline-2-carboxylic Acid] | B (MIC's of greater than 1.0 μg/mL to 8.0 μg/mL = B) | C (MIC's of greater than 8.0 μg/mL = C) | A (MIC's of 1.0 μg/mL or less = A) | A (MIC's of 1.0 μg/mL or less = A) | B (MIC's of greater than 1.0 μg/mL to 8.0 μg/mL = B) | C (MIC's of greater than 8.0 μg/mL = C) | C (MIC's of greater than 8.0 μg/mL = C) | C (MIC's of greater than 8.0 μg/mL = C) | A (MIC's of 1.0 μg/mL or less = A) | A (MIC's of 1.0 μg/mL or less = A)
4 | N[C@@H]1CCN2c3c(F)cc4c(=O)c(C(=O)O)cn(C5CC5)c4c3C=NC[C@H]12.O=C(O)C(F)(F)F [26/16, (3aR,4R)-4-Amino-13-cyclopropyl-8-fluoro-10-oxo-3a,4,5,6,10,13-hexahydro-3H-pyrrolo[2′,1′:3,4][1,4]diazepino[5,6-h]quinoline-11-carboxylic acid trifluoroacetate] | B (MIC's of greater than 1.0 μg/mL to 8.0 μg/mL = B) | C (MIC's of greater than 8.0 μg/mL = C) | A (MIC's of 1.0 μg/mL or less = A) | B (MIC's of greater than 1.0 μg/mL to 8.0 μg/mL = B) | C (MIC's of greater than 8.0 μg/mL = C) | C (MIC's of greater than 8.0 μg/mL = C) | C (MIC's of greater than 8.0 μg/mL = C) | C (MIC's of greater than 8.0 μg/mL = C) | B (MIC's of greater than 1.0 μg/mL to 8.0 μg/mL = B) | B (MIC's of greater than 1.0 μg/mL to 8.0 μg/mL = B)
5 | N[C@@H]1CCN2c3c(F)cc4c(=O)c(C(=O)O)cn(C5CC5)c4c3CNC[C@H]12.O=C(O)C(F)(F)F.O=C(O)C(F)(F)F [26/17, (3aR,4R)-4-Amino-13-cyclopropyl-8-fluoro-10-oxo-2,3,3a,4,5,6,10,13-octahydro-1H-pyrrolo[2′,1′:3,4][1,4]diazepino[5,6-h]quinoline-11-carboxylic acid bis(trifluoroacetate)] | B (MIC's of greater than 1.0 μg/mL to 8.0 μg/mL = B) | C (MIC's of greater than 8.0 μg/mL = C) | A (MIC's of 1.0 μg/mL or less = A) | B (MIC's of greater than 1.0 μg/mL to 8.0 μg/mL = B) | C (MIC's of greater than 8.0 μg/mL = C) | C (MIC's of greater than 8.0 μg/mL = C) | C (MIC's of greater than 8.0 μg/mL = C) | C (MIC's of greater than 8.0 μg/mL = C) | B (MIC's of greater than 1.0 μg/mL to 8.0 μg/mL = B) | B (MIC's of greater than 1.0 μg/mL to 8.0 μg/mL = B)
6 | O=C(O)c1cn(C2CC2)c2c3c(c(F)cc2c1=O)N1CCCC1CC=C3 (stereo not drawn) [27/5, 4-Cyclopropyl-12-fluoro-1-oxo-4,7,7a,8,9,10-hexahydro-1H-pyrrolo[1′,2′:1,7]azepino[2,3-h]quinoline-2-carboxylic acid] | C (MIC's of greater than 8.0 μg/mL = C) | B (MIC's of greater than 1.0 μg/mL to 8.0 μg/mL = B) | A (MIC's of 1.0 μg/mL or less = A) | A (MIC's of 1.0 μg/mL or less = A) | C (MIC's of greater than 8.0 μg/mL = C) | C (MIC's of greater than 8.0 μg/mL = C) | C (MIC's of greater than 8.0 μg/mL = C) | C (MIC's of greater than 8.0 μg/mL = C) | A (MIC's of 1.0 μg/mL or less = A) | B (MIC's of greater than 1.0 μg/mL to 8.0 μg/mL = B)
7 | O=C(O)c1cn(C2CC2)c2c3c(c(F)cc2c1=O)N1CCCC1CCC3 (stereo not drawn) [27/7, 4-Cyclopropyl-12-fluoro-1-oxo-4,5,6,7,7a,8,9,10-octahydro-1H-pyrrolo[1′,2′:1,7]azepino[2,3-h]quinoline-2-carboxylic acid] | C (MIC's of greater than 8.0 μg/mL = C) | B (MIC's of greater than 1.0 μg/mL to 8.0 μg/mL = B) | B (MIC's of greater than 1.0 μg/mL to 8.0 μg/mL = B) | B (MIC's of greater than 1.0 μg/mL to 8.0 μg/mL = B) | C (MIC's of greater than 8.0 μg/mL = C) | C (MIC's of greater than 8.0 μg/mL = C) | C (MIC's of greater than 8.0 μg/mL = C) | C (MIC's of greater than 8.0 μg/mL = C) | A (MIC's of 1.0 μg/mL or less = A) | C (MIC's of greater than 8.0 μg/mL = C)
8 | O=C(O)c1cn(C2CC2)c2c3c(c(F)cc2c1=O)N1CCCC1CC(O)C3O (stereo not drawn) [27/9, 4-Cyclopropyl-12-fluoro-5,6-dihydroxy-1-oxo-4,5,6,7,7a,8,9,10-octahydro-1H-pyrrolo[1′,2′:1,7]azepino[2,3-h]quinoline-2-carboxylic acid] | C (MIC's of greater than 8.0 μg/mL = C) | C (MIC's of greater than 8.0 μg/mL = C) | B (MIC's of greater than 1.0 μg/mL to 8.0 μg/mL = B) | C (MIC's of greater than 8.0 μg/mL = C) | C (MIC's of greater than 8.0 μg/mL = C) | C (MIC's of greater than 8.0 μg/mL = C) | C (MIC's of greater than 8.0 μg/mL = C) | C (MIC's of greater than 8.0 μg/mL = C) | B (MIC's of greater than 1.0 μg/mL to 8.0 μg/mL = B) | B (MIC's of greater than 1.0 μg/mL to 8.0 μg/mL = B)
9 | O=C1Cc2c(c(F)cc3c(=O)c(C(=O)O)cn(C4CC4)c23)N2CCCC2C1 (stereo not drawn) [27/10, 4-Cyclopropyl-12-fluoro-1,6-dioxo-4,5,6,7,7a,8,9,10-octahydro-1H-pyrrolo[1′,2′:1,7]azepino[2,3-h]quinoline-2-carboxylic acid] | C (MIC's of greater than 8.0 μg/mL = C) | C (MIC's of greater than 8.0 μg/mL = C) | B (MIC's of greater than 1.0 μg/mL to 8.0 μg/mL = B) | C (MIC's of greater than 8.0 μg/mL = C) | C (MIC's of greater than 8.0 μg/mL = C) | C (MIC's of greater than 8.0 μg/mL = C) | C (MIC's of greater than 8.0 μg/mL = C) | C (MIC's of greater than 8.0 μg/mL = C) | B (MIC's of greater than 1.0 μg/mL to 8.0 μg/mL = B) | B (MIC's of greater than 1.0 μg/mL to 8.0 μg/mL = B)
